Literature values as cited in paper PMC10954709, “Structure of an open KATP channel reveals tandem PIP2 binding sites mediating the Kir6.2 and SUR1 regulatory interface” (Nature Communications, 2024).

Tested on: KATP channels
Parameters: method as in PMID 12525701
Conditions: cited from earlier work

Compound	activation of KATP channels	reversibility of channel activation (synthetic short-chain PIP2)
PI(3,4)P2	activated equally well	–
CCCCCCCC(=O)OC[C@H](COP(=O)(O)O[C@@H]1[C@H](O)[C@H](O)[C@@H](OP(=O)(O)O)[C@H](OP(=O)(O)O)[C@H]1O)OC(=O)CCCCCCC [diC8-PIP2, diC8-PI(4,5)P2]	–	readily reversible
PI(3,4,5)P3	activated equally well	–
PI(4)P	activated	–
